Consider 20 compounds from publication PMC9083324, “Identifying Acute Cardiac Hazard in Early Drug Discovery Using a Calcium Transient High-Throughput Assay in Human-Induced Pluripotent Stem Cell-Derived Cardiomyocytes” (Frontiers in Physiology, 2022).

Data set [1] has as its system hiPSC-CMs (iCell Cardiomyocytes^2). The experiment in a line: Ca2+ transient assay (CTCM) with acute cardiac hazard scoring in hiPSC-CMs. As to conditions: for incidence of EADs / prolongation of CTD90: 3 nM.
Method: Cells were pre-plated and seeded in fibronectin-coated 96-well plates at a density suited to form a monolayer and maintained in culture in a stage incubator (37°C, 5% CO2) according to the instructions of the cell provider. […] The beating monolayer was taken from frozen vials iCell Cardiomyocytes^2 (≈5 million cells/vial), which were plated onto three 96-well plates (≈50K/well).
Cells from these lot numbers were from the same donor (Apparently healthy normal, age <18) (according to FUJIFILM Cellular Dynamics).
On the day of the experiment, the culture medium in the 96-well plates containing the monolayers of hiPSC-CMs was replaced with Tyrode’s solution (Sigma, No. T2397) supplemented with 10 mM HEPES together with KCl to yield isokalemic (4.2 mM K^+) conditions.
The Ca^2+-sensitive fluorescence dye Cal-520™ AM (Cat. no.21131; AAT Bioquest) was used to capture the intracellular Ca^2+ transients in hiPSC-CMs. […] Briefly, Cal-520 was incubated for 70 min followed by a wash-out with supplemented Tyrode’s solution and a 30-min recovery before starting the experiments at 37°C. […] Compounds were added automatically using the Functional Drug Screen System (FDSS/µCell; Hamamatsu, Japan) head stage by adding 100 µl of the 2-fold concentrated compound solution to wells with hiPSC-CMs already containing a volume of 100 µl of the experimental solution, reaching the final intended test concentration in 0.1% DMSO.
The spontaneous beating activity of hiPSC-CMs was assessed through measurement of the Ca^2+ fluorescence signal integrated over the whole well. Ten minutes before starting the recordings, the experimental plates were put into the FDSS system for stabilization and a baseline recording was captured for 4 min followed by compound addition. The effect of the compounds was recorded around 30 min after compound addition. The Ca^2+ transient signals were sampled every 16 ms (frame rate of 62.5 Hz) in hiPSC-CMs maintained at 37°C during the acquisition time. […] In addition, beat rate (BR = peak count/min) and amplitude (amp = difference between max. and min of every beat) were measured, and incidence of cellular arrhythmias, e.g., EAD-like activity (considered a surrogate of TdP), cessation of beating (∼ stop beating), and below beating below quantification level (caused by low amplitude of the Ca^2+ transient or by ectopic beat: BBQL) were also recorded (Figures 1B,C).
For all individual experiments, delta percent (Δ%) at 30 min with respect to the baseline value was calculated [e.g., ∆% for CTD90 = (CTD90 30 min-CTD90 0 min)/CTD90 0 min) × 100].
TIs indicate an interval where, with a certain confidence level (1- α = 0.95), a specified proportion (p = 0.90) of a sampled population falls. […] These ΔΔ% net effects were the values obtained after normalization for baseline (Δ% vs. baseline) per well and the aggregated compound-treated wells are vehicle corrected by subtraction with the aggregated Δ% of the corresponding DMSO wells from the same plate [e.g., ΔΔ% = median Δ% drug - median Δ% DMSO]. The categorization was made first for each concentration and then aggregated per compound and test site. […] Similarly, a compound was categorized as decreased if it was in a category “decreased” in at least one of the four concentrations.
The cut-off values are net changes (ΔΔ% changes vs. baseline and vehicle), which are based on the statistical tolerance intervals (TIs) (Δ% changes vs. baseline). TIs indicate an interval where, with a certain confidence level, a specified proportion of a sampled population falls.
Data set [2] has as its system hiPSC-CMs (iCell Cardiomyocytes). The experiment in a line: Ca2+ transient assay (CTCM), lot-to-lot comparison in iCell Cardiomyocytes (non-square cells, Lot 103674). The format is cell-based, human. How it is done: To investigate lot-to-lot variability in hiPSC-CMs, we tested 19 drugs with known clinical cardiac risk in other lots of iCell Cardiomyocytes^2. Fifty-five reference drugs were tested in iCell Cardiomyocytes^2 -Lot12012, 18 reference drugs were tested in iCell Cardiomyocytes^2 (Lot105091), and 18 reference drugs were tested in iCell Cardiomyocytes (Lot103674) (nonsquare cells).

In data set [3] the test system is IKr. The arrangement: method as in Liu et al., 2010. The settings on record: ref Liu et al., 2010; cited from earlier work.
The subject of data set [4] is IKs. The arrangement: method as in Liu et al., 2010. As to conditions: ref Liu et al., 2010; cited from earlier work.
Where [5] appears, read: similar among the iCell Cardiomyocytes^2 and iCell Cardiomyocytes lots.
Where [6] appears, read: 3 nM (2-fold fCmax), n = 131 studies.
Setting [7] is: updated scoring: 10 points for decrease in beat rate by ≥ −30%.
The mark [8] stands for this setting: over the tested concentrations (Figure 3).

As to `CC(C)NCC(O)COc1ccc(CC(N)=O)cc1` (stereo not drawn) [Atenolol], the hazard score entry in data set [1] (setting [5]) is “no hazard”.
Consider `[Ba+2].[Cl-].[Cl-]` [BaCl2], for which, in data set [1] (concentration not given), the “effect on hiPSC-CMs (detection in the assay)” value is given as “no effect”.
On to `C[C@H](CS)C(=O)N1CCC[C@H]1C(=O)O` [Captopril], for which the hazard score result in data set [1] (setting [5]) was “no hazard”.
With `O=C(O)COCCN1CCN(C(c2ccccc2)c2ccc(Cl)cc2)CC1` (stereo not drawn) [Cetirizine], the hazard score result in data set [1] (1 µM (16-fold the fCmax), numerous studies) is on record as “no hazard”.
For the compound `CN(CCOc1ccc(NS(C)(=O)=O)cc1)CCc1ccc(NS(C)(=O)=O)cc1` [Dofetilide], the “share of studies identified as high (red color) hazard score” value in data set [1] (setting [6]) came to 21%. In data set [1] (setting [6]), the “share of studies identified as very high (black color) hazard score” value came to 71%. The “share of studies identified as yellow hazard score” value in data set [1] (setting [6]) is on record as 8%. Further, the “incidence of EADs” value is on record as 63% in data set [1] (first iCell Cardiomyocytes^2 lot (12,012)); 71% in data set [1] (second iCell Cardiomyocytes^2 lot); 65% in data set [2] (3 nM, iCell Cardiomyocytes). Moreover, the “prolongation of CTD90” value was 330% in data set [1] (lot 10,591 (n = 28)); 305% in data set [1] (lot 12,012 (n = 144)); 234% in data set [2] (3 nM, lot105091 as printed (n = 20)).
For `CC(C)(C)c1ccc(C(=O)CCCN2CCC(OC(c3ccccc3)c3ccccc3)CC2)cc1` [Ebastine], in data set [1] (setting [5]), the hazard score result was “no hazard”.
Turning to `O=C(Nc1ccc(Oc2ccccc2)cc1)c1cccc([N+](=O)[O-])c1` [ICA-105574], the “effect on CTD90” value in data set [1] (concentration not given) was “shortened”.
On to `CC(C)NCC(O)c1ccc(O)c(O)c1` (stereo not drawn) [Isoproterenol], for which the “share of studies identified within the low and high hazard zones” value in data set [1] (100 nM (63-fold fCmax), n = 143 studies) was 92%.
With `COc1cc2c(cc1OC)CC(=O)N(CCCN(C)C[C@H]1Cc3cc(OC)c(OC)cc31)CC2` [Ivabradine], the hazard score entry in data set [1] (setting [7]) is on record as “low”.
As to `CC(C)(Oc1ccc(Cl)cc1)C(=O)NC1C2CC3CC1CC(NS(C)(=O)=O)(C3)C2` (stereo not drawn) [JNJ-303], the “effect on hiPSC-CMs (detection in the assay)” value in data set [1] (concentration not given) was “not detected”.
On to `Cc1cccc(C)c1OCC(C)N` (stereo not drawn) [Mexiletine], for which, in data set [1] (100 µM = 67x fCmax), the cessation of beating result is “some cessation of beating” and the hazard score entry is “Red”.
Take `COCCOC(=O)C1=C(C)NC(C)=C(C(=O)OC(C)C)C1c1cccc([N+](=O)[O-])c1` (stereo not drawn) [Nimodipine]: the “share of studies identified within the low and high hazard zones” value in data set [1] (300 nM (15-fold fCmax), n = 124 studies) was 95%.
Regarding `Cc1cc2c(s1)Nc1ccccc1N=C2N1CCN(C)CC1` [Olanzapine], the hazard score entry in data set [1] (highest tested concentration 100 nM (around fCmax)) is listed as “not found to be with any hazard level”.
In the case of `O=C1NC(=O)C(c2ccccc2)(c2ccccc2)N1` [Phenytoin], the hazard score result in data set [1] (setting [8]) is “Green”.
With `CCC1(c2ccccc2)C(=O)NCNC1=O` [Primidone], the hazard score entry in data set [1] (setting [8]) was “Green”.
Regarding `O=C(c1ccc(OCCN2CCCCC2)cc1)c1c(-c2ccc(O)cc2)sc2cc(O)ccc12` [Raloxifene], the hazard score result in data set [1] (at >2000 folds of fCmax) is listed as “red”; in data set [1] (at ∼700–800 folds fCmax) it was “green”. Besides, the IC50 was 1100 nM in data set [3] and 4800 nM in data set [4].
Take `CC(C)NCC(O)c1ccc(NS(C)(=O)=O)cc1` (stereo not drawn) [Sotalol]: the “EAD incidence compared to the two lots of iCell-Cardiomyocytes^2 (3 and 10 µM)” value in data set [2] (iCell Cardiomyocytes, 10 µM) is reported as “much higher”.
On to `Nc1ncnc2c1ncn2[C@@H]1O[C@H](CO)[C@@H](O)[C@H]1O` [adenosine], for which the hazard score result in data set [1] (setting [7]) is “low”.
The same measure, in the same setting: for `C[N+](C)(C)CCOC(N)=O` [carbachol] the value was “low”.
As to `CC(C)(C)c1ccc(C(O)CCCN2CCC(C(O)(c3ccccc3)c3ccccc3)CC2)cc1` (stereo not drawn) [terfenadine], in data set [1] (concentration not given), the cessation of beating entry was “caused cessation of beating” and the “effect on CTD90” value is “slightly shortened”.
